From patent US20230391748A1, “BICYCLIC INHIBITORS OF IRAK” (priority 2022, published 2023)
pIC50: −log10 of the molar value.

Key:
[1] = target: IRAK4 (Homo sapiens (Human), UniProt Q9NWZ3); test: IRAK4 ADP-Glo Assay; type: biochemical; settings: MBP substrate
In short: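 Human IRAK4 kinase reaction with MBP substrate plus ATP in Tris-HCl/MgCl2/BSA/DTT buffer, pH 7.4, run 60 min at room temperature or 30 min at 30 °C. ADP formed was measured by ADP-Glo luminescence after ATP depletion (40 min) and detection reagent (30 min).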

[2] = system: TNF-α in Human Primary Monocyte-Derived Dendritic Cells; test: Gardiquimod-Induced TNF-α in Human Primary Monocyte-Derived Dendritic Cells; type: cell-based; settings: Dendritic cell, IFNγ-primed monocyte-derived dendritic cells, 4 μg/ml Gardiquimod, 6 hours, TNF-α ELISA, read-out: TNFα (DC, GARD) (IC50)
In short: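 Monocytes differentiated 7 days with GM-CSF and IL-4, then primed 24 h with 50 ng/ml IFN-γ. Compound added 1 h before 6 h stimulation with 4 μg/ml Gardiquimod, 0.5% DMSO final. Supernatant TNF-α measured by chemiluminescent ELISA; EC50 from curve fitting.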

[3] = system: IL23p19 in THP-1 Cells; test: LPS Induced IL23p19 in THP-1 Cells (with IFNγ Primed) Assay; type: cell-based; settings: Homo sapiens, THP-1, 18 h, read-out: IL23 (THP, LPS) (IC50, μM)
In short: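 THP-1 cells (50K/well) primed with IFNγ (50 ng/mL) about 18 h, then given compound and stimulated with LPS for 18 h at 37 °C. Secreted IL-23p19 measured by sandwich ELISA with chemiluminescent read-out, giving EC50. Cell Titer Glo used on the remaining cells for toxicity.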

[4] = system: TNF-α in human PBMCs; test: R848-induced TNF-α in human PBMCs Assay; type: cell-based; settings: Homo sapiens, PBMC, 4 h, read-out: TNFα (PBMC, R848) (IC50, μM)
In short: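 Human PBMCs at 200K/well were pretreated with compound, then R848-stimulated for 4 h at 37 °C, 5% CO2. Supernatant TNF-α quantified by chemiluminescent ELISA; EC50 from curve fitting.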

Chain of IRAK4 (Q9NWZ3 whole entry): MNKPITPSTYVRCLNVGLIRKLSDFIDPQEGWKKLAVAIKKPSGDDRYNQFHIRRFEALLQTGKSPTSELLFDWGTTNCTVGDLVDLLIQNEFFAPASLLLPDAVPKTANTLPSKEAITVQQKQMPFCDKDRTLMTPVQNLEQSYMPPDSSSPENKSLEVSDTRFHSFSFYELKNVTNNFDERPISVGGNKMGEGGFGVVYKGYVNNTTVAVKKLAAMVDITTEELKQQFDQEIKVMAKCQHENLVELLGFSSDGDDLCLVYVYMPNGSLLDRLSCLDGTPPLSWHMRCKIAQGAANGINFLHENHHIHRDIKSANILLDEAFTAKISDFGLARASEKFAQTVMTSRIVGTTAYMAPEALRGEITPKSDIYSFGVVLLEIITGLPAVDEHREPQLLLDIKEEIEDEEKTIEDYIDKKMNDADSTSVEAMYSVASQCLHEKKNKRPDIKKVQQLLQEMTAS

| Compound | pIC50 [1] | pIC50 [2] | IC50 [3] | IC50 [4] |
| --- | --- | --- | --- | --- |
| CC(C)Oc1cc2c(O[C@@H]3CCCN(C(=O)CC#N)C3)ncc(C#CC3CCN(C(=O)OC(C)(C)C)CC3)c2cc1C(N)=O [Compound I-95, tert-butyl (R)-4-((6-carbamoyl-1-((1-(2-cyanoacetyl)piperidin-3-yl)oxy)-7-isopropoxyisoquinolin-4-yl)ethynyl)piperidine-1-carboxylate] | 7.16 | 6.07 | 1.56 µM | 2.1 µM |
| CC(C)Oc1cc2c(O[C@@H]3CCCN(C(=O)CC#N)C3)ncc(C#CC3CCNCC3)c2cc1C(N)=O [Compound I-96, (R)-1-((1-(2-cyanoacetyl)piperidin-3-yl)oxy)-7-isopropoxy-4-(piperidin-4-ylethynyl)isoquinoline-6-carboxamide] | 8.10 | 5.93 | 7.84 µM | 1.71 µM |
| CC(C)Oc1cc2c(O[C@@H]3CCCN(C(=O)CC#N)C3)ncc(C#CC3CCN(C)CC3)c2cc1C(N)=O [Compound I-97, (R)-1-((1-(2-cyanoacetyl)piperidin-3-yl)oxy)-7-isopropoxy-4-((1-methylpiperidin-4-yl)ethynyl)isoquinoline-6-carboxamide] | 7.81 | 6.60 | 1.98 µM | 0.752 µM |
| CCO[C@H]1CC[C@H](C#Cc2cnc(O[C@@H]3CCCN(C(=O)CC#N)C3)c3cc(OC(C)C)c(C(N)=O)cc23)CC1 [Compound I-98, 1-(((R)-1-(2-cyanoacetyl)piperidin-3-yl)oxy)-4-(((1r,4R)-4-ethoxycyclohexyl)ethynyl)-7-isopropoxyisoquinoline-6-carboxamide] | 7.59 | 6.87 | 0.484 µM | 0.22 µM |
| CCO[C@H]1CC[C@@H](C#Cc2cnc(O[C@@H]3CCCN(C(=O)CC#N)C3)c3cc(OC(C)C)c(C(N)=O)cc23)CC1 [Compound I-99, 1-(((R)-1-(2-cyanoacetyl)piperidin-3-yl)oxy)-4-((cis-4-ethoxycyclohexyl)ethynyl)-7-isopropoxyisoquinoline-6-carboxamide] | 7.64 | 6.44 | 0.483 µM | 0.555 µM |
| CC(C)Oc1cc2c(O[C@@H]3CCCN(C(=O)CC#N)C3)ncc(C#C[C@H]3CC[C@](C)(O)CC3)c2cc1C(N)=O [Compound I-100, 1-(((R)-1-(2-cyanoacetyl)piperidin-3-yl)oxy)-4-(((1r,4R)-4-hydroxy-4-methylcyclohexyl)ethynyl)-7-isopropoxyisoquinoline-6-carboxamide] | 7.46 | 5.85 | 0.96 µM | 3.3 µM |
| CC(C)Oc1cc2c(O[C@@H]3CCCN(C(=O)CC#N)C3)ncc(C#C[C@H]3CC[C@@](C)(O)CC3)c2cc1C(N)=O [Compound I-101, 1-(((R)-1-(2-cyanoacetyl)piperidin-3-yl)oxy)-4-(((1s,4S)-4-hydroxy-4-methylcyclohexyl)ethynyl)-7-isopropoxyisoquinoline-6-carboxamide] | 7.86 | 6.12 | 0.27 µM | 3.33 µM |
| CC(C)Oc1cc2c(O[C@@H]3CCCN(C(=O)CC#N)C3)ncc(C#CC3CN(C(=O)OC(C)(C)C)C3)c2cc1C(N)=O [Compound I-102, tert-butyl (R)-3-((6-carbamoyl-1-((1-(2-cyanoacetyl)piperidin-3-yl)oxy)-7-isopropoxyisoquinolin-4-yl)ethynyl)azetidine-1-carboxylate] | 7.45 | 7.20 | 0.16 µM | 0.19 µM |
| CC(C)Oc1cc2c(O[C@@H]3CCCN(C(=O)CC#N)C3)ncc(C#CC3CNC3)c2cc1C(N)=O [Compound I-103, (R)-4-(azetidin-3-ylethynyl)-1-((1-(2-cyanoacetyl)piperidin-3-yl)oxy)-7-isopropoxyisoquinoline-6-carboxamide] | 8.28 | 6.08 | 9.35 µM | 0.441 µM |
| CC(C)Oc1cc2c(O[C@@H]3CCCN(C(=O)CC#N)C3)ncc(C#CC3CN(C)C3)c2cc1C(N)=O [Compound I-104, (R)-1-((1-(2-cyanoacetyl)piperidin-3-yl)oxy)-7-isopropoxy-4-((1-methylazetidin-3-yl)ethynyl)isoquinoline-6-carboxamide] | 8.15 | 6.80 | 1.76 µM | 0.237 µM |
| COC1(OC)CC(C#Cc2cnc(O[C@@H]3CCCN(C(=O)CC#N)C3)c3cc(OC(C)C)c(C(N)=O)cc23)C1 [Compound I-105, (R)-1-((1-(2-cyanoacetyl)piperidin-3-yl)oxy)-4-((3,3-dimethoxycyclobutyl)ethynyl)-7-isopropoxyisoquinoline-6-carboxamide] | 8.00 | 6.54 | 0.603 µM | 0.275 µM |
| CC(C)Oc1cc2c(O[C@@H]3CCCN(C(=O)CC#N)C3)ncc(C#C[C@H]3C[C@@H](N(C)C)C3)c2cc1C(N)=O [Compound I-106, 1-(((R)-1-(2-cyanoacetyl)piperidin-3-yl)oxy)-4-((cis-3-(dimethylamino)cyclobutyl)ethynyl)-7-isopropoxyisoquinoline-6-carboxamide] | 8.49 | 7.27 | 0.436 µM | 0.363 µM |
| CC(C)Oc1cc2c(O[C@@H]3CCCNC3)ncc(-c3cnn(C4CC4)c3)c2cc1C(N)=O [Compound I-108, (R)-4-(1-cyclopropyl-1H-pyrazol-4-yl)-7-isopropoxy-1-(piperidin-3-yloxy)isoquinoline-6-carboxamide] | 6.85 | 5.86 | 10 µM | 5.5 µM |
| CC(C)Oc1cc2c(O[C@@H]3CCCNC3)ncc(-c3cnn(C4CCC4)c3)c2cc1C(N)=O [Compound I-109, (R)-4-(1-cyclobutyl-1H-pyrazol-4-yl)-7-isopropoxy-1-(piperidin-3-yloxy)isoquinoline-6-carboxamide] | 6.77 | 5.84 | 34.9 µM | 2.55 µM |
| CC(C)Oc1cc2c(O[C@@H]3CCCNC3)ncc(-c3cnn(C4CCCC4)c3)c2cc1C(N)=O [Compound I-110, (R)-4-(1-cyclopentyl-1H-pyrazol-4-yl)-7-isopropoxy-1-(piperidin-3-yloxy)isoquinoline-6-carboxamide] | 6.91 | 5.75 | 24.7 µM | 2.44 µM |
| CC(C)Oc1cc2c(O[C@@H]3CCCNC3)ncc(-c3cnn(C4CCOCC4)c3)c2cc1C(N)=O [Compound I-111, (R)-7-isopropoxy-1-(piperidin-3-yloxy)-4-(1-(tetrahydro-2H-pyran-4-yl)-1H-pyrazol-4-yl)isoquinoline-6-carboxamide] | 5.84 | 5.64 | 15.5 µM | 3.46 µM |
| CC(C)Oc1cc2c(O[C@@H]3CCCNC3)ncc(-c3cnn(CC4CCOCC4)c3)c2cc1C(N)=O [Compound I-112, (R)-7-isopropoxy-1-(piperidin-3-yloxy)-4-(1-((tetrahydro-2H-pyran-4-yl)methyl)-1H-pyrazol-4-yl)isoquinoline-6-carboxamide] | 6.55 | 5.04 | 13.6 µM | 3.95 µM |
| CC(C)Oc1cc2c(O[C@@H]3CCCNC3)ncc(-c3cnn(CCC4CCOCC4)c3)c2cc1C(N)=O [Compound I-113, (R)-7-isopropoxy-1-(piperidin-3-yloxy)-4-(1-(2-(tetrahydro-2H-pyran-4-yl)ethyl)-1H-pyrazol-4-yl)isoquinoline-6-carboxamide] | 6.44 | 6.07 | 8.82 µM | 0.677 µM |
| CC(C)Oc1cc2c(O[C@@H]3CCCN(C(=O)CC#N)C3)ncc(-c3cnn(C4CC4)c3)c2cc1C(N)=O [Compound I-114, (R)-1-((1-(2-cyanoacetyl)piperidin-3-yl)oxy)-4-(1-cyclopropyl-1H-pyrazol-4-yl)-7-isopropoxyisoquinoline-6-carboxamide] | 7.91 | 6.18 | 1.42 µM | 0.549 µM |
| CC(C)Oc1cc2c(O[C@@H]3CCCN(C(=O)CC#N)C3)ncc(-c3cnn(C4CCC4)c3)c2cc1C(N)=O [Compound I-115, (R)-1-((1-(2-cyanoacetyl)piperidin-3-yl)oxy)-4-(1-cyclobutyl-1H-pyrazol-4-yl)-7-isopropoxyisoquinoline-6-carboxamide] | 7.88 | 6.35 | 0.911 µM | 0.443 µM |
| CC(C)Oc1cc2c(O[C@@H]3CCCN(C(=O)CC#N)C3)ncc(-c3cnn(C4CCCC4)c3)c2cc1C(N)=O [Compound I-116, (R)-1-((1-(2-cyanoacetyl)piperidin-3-yl)oxy)-4-(1-cyclopentyl-1H-pyrazol-4-yl)-7-isopropoxyisoquinoline-6-carboxamide] | 8.11 | 6.66 | 1.37 µM | 0.271 µM |
